Assay results as given in US6825192B1, “Heterodiazinone derivatives” (Eisai Co., Ltd., priority 1999, dated 2004).
Counter-ions that a name gives are not always drawn.

Key:
[1] = test system: AMPA receptor; experiment: Inhibitory action on AMPA-inducing inflow of calcium into nerve cells (Fura2-AM); format: cell-based; details: rat cerebral cortex nerve cells on astrocytes, 1 μM MK-801, stimulated by 2 μM AMPA, fluorescence 340/380 nm
Protocol: The cerebral cortex was excised from the brain of a rat on day 18 after birth and treated with trypsin and DNase, whereby the cells were dispersed. The cells were allowed to float on DMEM containing 10% serum, inoculated into a culture bottle, and their astrocytes were grown. The astrocytes were re-dispersed with trypsin and inoculated onto each well on a 96-well plate. After it was confirmed that the bottom of each well was completely covered with the astrocytes after culture for 1 week, cerebral cortex nerve cells dispersed in the same manner as above were inoculated thereon. After 24 hours, the medium was exchanged with fresh one, and after culture for further 1 week, the medium was exchanged with a medium containing 1 μM MK-801.
The inflow of calcium into the cells was measured using Fura2-AM that is a calcium-sensitive fluorescent pigment. By treating the cells with a Fura2-AM-containing medium for 1 hour, Fura2-AM was incorporated into the cells, and the medium was exchanged with a Tyrode solution containing 1 μM MK-801. After a test compound was added, the cells were stimulated by 2 μM AMPA. The change in the amount of calcium flowing into the cells was measured as a change in the fluorescence intensity at wavelengths of 340/380 nm. The effect of a test compound was evaluated where the reaction caused by AMPA added to the Tyrode solution free of the test compound was used as the control.

[2] = test system: male ddy mice; experiment: Inhibitory action on AMPA-inducing spasm; format: in vivo; details: intravenous, 5 minutes before 1.5 nmol AMPA into the ventricle
Protocol: A test compound or its solvent only was intravenously injected into 4-week-old male ddy mice, and 5 minutes later, 1.5 nmol AMPA was administered into the ventricle thereby inducing spasm. The action of the test chemical was judged by the presence or absence of spasm, and its dose causing 80% or more inhibition was regarded as an effective dose.

[3] = test system: male SD rat; experiment: Reduction of infarct in a model with occlusion of midbrain/cerebrum arteries; format: in vivo; details: from 30 min after occlusion, 6 h, vs solvent only
Protocol: The cervical region of a 8-week-old male SD rat was cut across the midline, and a right carotid artery was removed. An operation nylon thread (standard 4-0) was inserted into an external carotid artery, and blood stream in the midbrain/cerebrum arteries in the skull was occluded by the nylon thread, whereby a model with occlusion of midbrain/cerebrum arteries was prepared. Thirty minutes after the midbrain/cerebrum arteries were occluded, a test compound or its solvent only was once administered intravenously into the rat, and thereafter, it was continuously administered intravenously at a constant injection rate. The body temperature was controlled at 37.5 to 38.0° from the initiation of administration to the termination of administration. Six hours after the initiation of administration, the brain was excised from the rat and immediately cut into brain sections of 2 mm in thickness, which were then stained with 2% TTC solution. An image of these stained sections was incorporated into NIH image and the area of non-stained portions showing infarct loci was measured, and thereafter, the volume of the infarct loci was calculated.

[4] = test system: AMPA receptor channels; experiment: Inhibitory action on AMPA-inducing electric current in nerve cell membrane (patch clamp); format: cell-based; details: cultured rat cerebral cortex nerve cells, membrane potential -70 mV, 10 μM AMPA
Protocol: The action on AMPA receptor channels was examined by a patch clamp method.
The cerebral cortex was excised from the brain of a rat on day 18 after birth and treated with trypsin and DNase, whereby the cells were dispersed. The cells were allowed to float on DMEM containing 10% serum, inoculated into a culture bottle, and their astrocytes were grown. The astrocytes were re-dispersed with trypsin and inoculated onto each well on a 12-well plate.
After it was confirmed that the bottom of each well was completely covered with the astrocytes after culture for 1 week, a cover glass treated with poly-1-lysine was placed thereon, and cerebral cortex nerve cells dispersed in the same manner as above were further inoculated thereon. After 24 hours, the medium was exchanged with fresh one, and after culture for further 1 week, the medium was exchanged with a medium containing 1 μM MK-801.
The membrane potential of the cerebral cortex nerve cells cultured for 9 days or more was fixed at −70 mV by a patch clamp method, and after a test compound was added, 10 μM AMPA was applied as a stimulus to the cells. By using, as the control, electric current flowing via the membrane into the cells in the absence of the test compound, the action of the compound in Example 1 was examined.

[5] = test system: experimental animal model with cerebral ischemia; details: Sheardown et al., Science, 247, 571, 1990; cited from earlier work
[6] = test system: rat model with cerebral ischemia; details: Le Peillet et al., Brain Research, 571, 115, 1992; cited from earlier work

Compound | IC50 [1] [µM] | effective dose (dose causing 80% or more inhibition of spasm) [2] [mg/kg] | other results
O=C1COC(c2ncccc2O)=NN1c1ccccc1 [Example 14, 2-(3-Hydroxy-2-pyridyl)-4-phenyl-4H-1,3,4-oxadiazine-5(6H)-one] | 1.56 | 10 | 
O=C1COC(c2ccccn2)=NN1c1ccccc1 [Example 1, 2-(2-Pyridyl)-4-phenyl-4H-1,3,4-oxadiazine-5(6H)-one hydrochloride] | 11.8 | 30 | reduction of infarct loci in the cerebral cortex ([3]; single i.v. 6.6 mg/kg then continuous i.v. 10 mg/kg/h): 54%; reduction of infarct loci in the cerebral cortex ([3]; single i.v. 20 mg/kg then continuous i.v. 30 mg/kg/h): 74%; IC50 [4]: 12.3 µM
O=C1COC(c2ccccn2)=NN1c1ccccc1 (as salt: hydrochloride) [Example 1, 2-(2-Pyridyl)-4-phenyl-4H-1,3,4-oxadiazine-5(6H)-one hydrochloride] |  |  | melting point: 149 to 150 °C
NS(=O)(=O)c1cccc2c1c([N+](=O)[O-])cc1nc(O)c(O)nc12 [NBQX, 2,3-dihydroxy-6-nitro-7-sulfamoyl-benzo[f-]quinoxaline] |  |  | effect in experimental animal model with cerebral ischemia [5]: effective
CC1=NN=C(c2ccc(N)cc2)c2cc3c(cc2C1)OCO3 [GYKI 52466, 1-(amino-phenyl)-4-methyl-7,8-methylenedioxy-5H-2,3-benzoazepine hydrochloride, reference compound] | 9.02 |  | nerve-protecting action in rat model with cerebral ischemia [6]: exerts a nerve-protecting action
Cl.O=C1COC(c2ccccc2OCCN2CCOCC2)=NN1c1ccccc1Br [Example 68, 2-{2-[2-(4-Morpholinyl)ethoxy]phenyl}-4-(2-bromophenyl)-4H-1,3,4-oxadiazine-5(6H)-one hydrochloride] | 11.1 | 30 | 
CN(C)CCOc1ccccc1C1=NN(c2ccccc2Br)C(=O)CO1.Cl [Example 54, 2-[2-(2-Dimethylamino)ethoxyphenyl]-4-(2-bromophenyl)-4H-1,3,4-oxadiazine-5(6H)-one hydrochloride] | 4.14 | 30 | melting point: 169 to 170 °C
N#Cc1ccccc1N1N=C(c2ccccc2)OCC1=O [Example 36, 2-Phenyl-4-(2-cyanoeyphenyl)-4H-1,3,4-oxadiazine-5(6H)-one] | 2.28 | 10 | 
N#Cc1ncccc1N1N=C(c2ccccc2)OCC1=O [Example 42, 2-Phenyl-4-(2-cyano-3-pyridyl)-4H-1,3,4-oxadiazine-5(6H)-one hydrochloride] | 3.13 |  | 
